In ChEMBL document CHEMBL1201862, “PubChem BioAssay data set” (2004):
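Test compounds were applied to cells in 96-well plates for 48 hours at 5 doses. Here, GI50 denotes the concentration required for 50% inhibition of growth.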 Active and inactive are the calls of the source. Rule as the data show it: active = GI50 up to about 1.1 µM and inactive = higher.

Assays:
Test in all cases: DTP human tumour cell line panel, 48 h
RXF 393 = system: RXF 393
TK-10 = system: TK-10
DLD-1 = system: DLD-1
SK-OV-3 = system: SK-OV-3
HL-60 = system: HL-60
SK-MEL-5 = system: SK-MEL-5
DMS-273 = system: DMS-273
SF-295 = system: SF-295
LOX IMVI = system: LOX IMVI
HCT-15 = system: HCT-15
SW-620 = system: SW-620
DMS-114 = system: DMS-114
HT-29 = system: HT-29
U-251 = system: U-251
ACHN = system: ACHN
NCI-H226 = system: NCI-H226
SF-268 = system: SF-268
LXFL 529 = system: LXFL 529
UACC-257 = system: UACC-257
UO-31 = system: UO-31

CCOC(=O)C12CCC(=O)C=C1[C@@H](C)C(=O)CC2 (stereo not given in full)
GI50 (RXF 393): > 100 µM (inactive)
GI50 (TK-10): > 100 µM (inactive)
GI50 (DLD-1): > 100 µM (inactive)
GI50 (SK-OV-3): > 100 µM (inactive)
GI50 (HL-60): > 100 µM (inactive)
GI50 (SK-MEL-5): > 100 µM (inactive)
GI50 (DMS-273): > 100 µM (inactive)
GI50 (SF-295): > 100 µM (inactive)
GI50 (LOX IMVI): > 100 µM (inactive)
GI50 (HCT-15): > 100 µM
GI50 (SW-620): > 100 µM (inactive)
GI50 (DMS-114): > 100 µM (inactive)
GI50 (HT-29): > 100 µM (inactive)
GI50 (U-251): > 100 µM (inactive)
GI50 (ACHN): > 100 µM (inactive)
GI50 (NCI-H226): > 100 µM (inactive)
GI50 (SF-268): > 100 µM (inactive)
GI50 (LXFL 529): > 100 µM (inactive)
GI50 (UACC-257): > 100 µM (inactive)
GI50 (UO-31): > 100 µM (inactive)

NCc1ccccc1C1CSCSC1
GI50 (RXF 393): 39.8 µM (inactive)
GI50 (TK-10): > 100 µM (inactive)
GI50 (DLD-1): > 100 µM (inactive)
GI50 (SK-OV-3): > 100 µM (inactive)
GI50 (HL-60): > 100 µM (inactive)
GI50 (SK-MEL-5): > 100 µM (inactive)
GI50 (DMS-273): > 100 µM (inactive)
GI50 (SF-295): > 100 µM (inactive)
GI50 (LOX IMVI): > 100 µM (inactive)
GI50 (HCT-15): > 100 µM
GI50 (SW-620): > 100 µM (inactive)
GI50 (DMS-114): > 100 µM (inactive)
GI50 (HT-29): > 100 µM (inactive)
GI50 (U-251): > 100 µM (inactive)
GI50 (ACHN): > 100 µM (inactive)
GI50 (NCI-H226): > 100 µM (inactive)
GI50 (SF-268): > 100 µM (inactive)
GI50 (LXFL 529): > 100 µM (inactive)
GI50 (UACC-257): > 100 µM (inactive)
GI50 (UO-31): > 100 µM (inactive)
